Experimental data published in patent US20250186408A1, “TREATMENT OF PHARMACORESISTANT EPILEPSY” (Katholieke Universiteit Leuven, priority 2021, published 2025).
pEC50, pIC50: −log10 of the molar value. Read-outs that look alike come from different tables or passages of the source.

Columns and labels:
[1] = target: DRD1 (Homo sapiens, UniProt P21728); experiment: cAMP DRD1 Agonist; settings: for Emax: read-out: Max response
Description: (§1) In vitro pharmacological profiling of compounds was done against 78 functional assays for 47 common off-targets (30) by Eurofins DiscoverX Corporation (Fremont, CA, USA) using their SAFETYscan E/IC50 ELECT service (Cat Ref 87-1003DR, Safety47 Panel Dose Response). […] Compounds were tested in a range of 10 concentrations, following a 3-fold serial dilution, starting from 10 μM. The assays were performed utilizing the PathHunter enzyme fragment complementation (EFC) technology, FLIPR®-based cellular screening assays, and KINOMEscan kinase binding assays.
(§2) cAMP Hunter cell lines were expanded from freezer stocks. Prior to testing, cells were seeded in a total volume of 20 μL into white walled 384-well microplates and incubated at 37° C. cAMP modulation was determined using the DiscoverX HitHunter cAMP XS+ assay. For Gs agonist determination, cells were incubated with sample to induce response. For Gi agonist determination, cells were incubated with sample in the presence of EC80 forskolin to induce response. For both conditions, media was aspirated from cells and replaced with 15 μL 2:1 HBSS/10 mM HEPES:cAMP XS+ Ab reagent. Intermediate dilution of sample stocks was performed to generate 4× sample in assay buffer (containing 4×EC80 forskolin in the case of antagonist determination). 5 μL of 4× sample was added to cells and incubated at 37° C. or room temperature (RT) for 30 or 60 min. Final assay vehicle concentration was 1%. For antagonist determination, cells were pre-incubated with sample followed by agonist challenge at the EC80 concentration. Media was aspirated from cells and replaced with 10 μL 1:1 HBSS/HEPES:cAMP XS+ Ab reagent. 5 μL of 4× compound was added to the cells and incubated at 37° C. or RT for 30 min. 5 μL of 4×EC80 agonist was added to the cells and incubated at 37° C. or RT for 30 or 60 min. For Gi coupled GPCRs, EC80 forskolin was included. […] Microplates were read following signal generation with a PerkinElmer Envision™ instrument for chemiluminescent signal detection. Compound activity was analyzed using CBIS data analysis suite (ChemInnovation, CA).

[2] = target: T1, SERT (Homo sapiens, UniProt P31645); experiment: Transporter SERT Blocker; type: cell-based; settings: for Emax: Transporter SERT Blocker, read-out: Max response
T1 construct: Eurofins DiscoverX Corporation 87-1003DR; host or cells: unnamed cell lines
Description: After cell plating and incubation, media was removed an 25 μL of 1× compound in 1×HBSS/0.1% BSA was added. Compounds were incubated with cells for 30 min at 37° C. After compound incubation, 25 μL of 1× dye loading buffer (1× dye, 1×HBSS/20 mM HEPES) was added to the wells. Cells were incubated for 30-60 min at 37° C. After incubation, microplates were transferred to a PerkinElmer Envision™ instrument for fluorescent signal detection. […] For blocker mode assays, percentage of inhibition was calculated using the following formula: […]

[3] = target: OPRM1 (Homo sapiens, UniProt P35372); experiment: cAMP OPRM1 Antagonist; settings: for Emax: OPRM1, read-out: Max response
Description: as §1
cAMP Hunter cell lines were expanded from freezer stocks. Prior to testing, cells were seeded in a total volume of 20 μL into white walled 384-well microplates and incubated at 37° C. cAMP modulation was determined using the DiscoverX HitHunter cAMP XS+ assay. For Gs agonist determination, cells were incubated with sample to induce response. For Gi agonist determination, cells were incubated with sample in the presence of EC80 forskolin to induce response. For both conditions, media was aspirated from cells and replaced with 15 μL 2:1 HBSS/10 mM HEPES:cAMP XS+ Ab reagent. Intermediate dilution of sample stocks was performed to generate 4× sample in assay buffer (containing 4×EC80 forskolin in the case of antagonist determination). 5 μL of 4× sample was added to cells and incubated at 37° C. or room temperature (RT) for 30 or 60 min. Final assay vehicle concentration was 1%. For antagonist determination, cells were pre-incubated with sample followed by agonist challenge at the EC80 concentration. Media was aspirated from cells and replaced with 10 μL 1:1 HBSS/HEPES:cAMP XS+ Ab reagent. 5 μL of 4× compound was added to the cells and incubated at 37° C. or RT for 30 min. 5 μL of 4×EC80 agonist was added to the cells and incubated at 37° C. or RT for 30 or 60 min. For Gi coupled GPCRs, EC80 forskolin was included. […] Microplates were read following signal generation with a PerkinElmer Envision™ instrument for chemiluminescent signal detection. Compound activity was analyzed using CBIS data analysis suite (ChemInnovation, CA). For Gs agonist mode assays, percentage activity was calculated using the following equation:

[4] = target: CNR2 (Homo sapiens, UniProt P34972); experiment: cAMP CNR2 Agonist; settings: for Emax: read-out: Max response
Description: as §1, §2

[5] = target: T2, CHRM1 (Homo sapiens, UniProt P11229); experiment: Calcium Flux CHRM1 Antagonist; settings: for Emax: read-out: Max response
T2 sequence (P11229 1-460): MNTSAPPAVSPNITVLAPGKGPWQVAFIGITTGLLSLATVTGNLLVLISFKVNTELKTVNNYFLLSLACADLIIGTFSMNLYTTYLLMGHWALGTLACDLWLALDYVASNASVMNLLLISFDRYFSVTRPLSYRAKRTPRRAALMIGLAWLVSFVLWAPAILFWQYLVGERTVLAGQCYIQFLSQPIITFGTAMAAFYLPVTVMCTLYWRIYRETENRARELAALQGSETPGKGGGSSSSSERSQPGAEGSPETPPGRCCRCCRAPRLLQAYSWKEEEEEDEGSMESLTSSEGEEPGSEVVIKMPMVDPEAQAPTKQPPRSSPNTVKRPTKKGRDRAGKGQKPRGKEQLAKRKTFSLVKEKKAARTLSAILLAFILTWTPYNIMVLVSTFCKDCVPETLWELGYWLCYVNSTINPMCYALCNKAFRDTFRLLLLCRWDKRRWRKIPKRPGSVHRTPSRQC
Description: as §1
Prior to testing, cells (10,000 cells/well) were expanded from freezer stocks and seeded into a total volume of 50 μL into black walled, clear-bottom, Poly-D-lysine coated 384-well microplates and incubated at 37° C. […] Assays were performed in 1× dye loading buffer consisting of 1× Dye (DiscoverX, Calcium No Wash^PLUS kit, Catalog No. 90-0091), 1× Additive A and 2.5 mM Probenecid in HBSS/20 mM HEPES. Probenecid was prepared fresh. Prior to testing, media was aspirated from cells and replaced with 25 μL dye loading buffer. Cells were incubated for 45 min at 37° C. and then 20 min at RT. For agonist determination, 25 μL of 2× compound in HBSS/20 mM HEPES was added using a FLIPR Tetra (MDS). For antagonist determination, cells were pre-incubated with sample followed by agonist challenge at the EC80 concentration. 25 μL of 2× sample was added and cells were incubated for 30 min at RT in the dark to equilibrate plate temperature. After incubation, antagonist determination was initiated by addition of 25 μL of 1× compound with 3×EC80 agonist using FLIPR. For both agonist and antagonist formats, activity was measure on a FLIPR Tetra (MDS). Calcium mobilization was monitored for 2 min with a 5 sec baseline read.
FLIPR read—Area under the curve, was calculated for the entire 2 min read. Compound activity was analysed using CBIS data analysis suite (ChemInnovation, CA).

[6] = target: KvLQT1/minK (Homo sapiens, UniProt P51787); experiment: Ion Channel KvLQT1/minK Blocker; type: cell-based; settings: for Emax: read-out: Max response
[7] = target: NMDAR (1A/2B) (Homo sapiens, UniProt Q05586+Q13224); experiment: Ion Channel NMDAR (1A/2B) Blocker; type: cell-based; settings: for Emax: Ion Channel NMDAR (1A/2B) Blocker, read-out: Max response
[8] = target: HRH2 (Homo sapiens, UniProt P25021); experiment: cAMP HRH2 Antagonist; type: cell-based; settings: for Emax: read-out: Max response
Description: cAMP Hunter cell lines were expanded from freezer stocks. […] For Gi agonist determination, cells were incubated with sample in the presence of EC80 forskolin to induce response. For both conditions, media was aspirated from cells and replaced with 15 μL 2:1 HBSS/10 mM HEPES:cAMP XS+ Ab reagent. […] 5 μL of 4× sample was added to cells and incubated at 37° C. or room temperature (RT) for 30 or 60 min. Final assay vehicle concentration was 1%. […] Media was aspirated from cells and replaced with 10 μL 1:1 HBSS/HEPES:cAMP XS+ Ab reagent. […] For Gi coupled GPCRs, EC80 forskolin was included. […] Compound activity was analyzed using CBIS data analysis suite (ChemInnovation, CA).

[9] = target: AVPR1A (Homo sapiens, UniProt P37288); experiment: Calcium Flux AVPR1A Antagonist; type: cell-based; settings: for pIC50: read-out: RC50, result type IC50; for Emax: read-out: Max response
Description: (≤0.2% DMSO concentration). Assays were performed in 1× dye loading buffer consisting of 1× Dye (DiscoverX, Calcium No Wash^PLUS kit, Catalog No. 90-0091), 1× Additive A and 2.5 mM Probenecid in HBSS/20 mM HEPES. Probenecid was prepared fresh. Prior to testing, media was aspirated from cells and replaced with 25 μL dye loading buffer. Cells were incubated for 45 min at 37° C. and then 20 min at RT. For agonist determination, 25 μL of 2× compound in HBSS/20 mM HEPES was added using a FLIPR Tetra (MDS). […] 25 μL of 2× sample was added and cells were incubated for 30 min at RT in the dark to equilibrate plate temperature. After incubation, antagonist determination was initiated by addition of 25 μL of 1× compound with 3×EC80 agonist using FLIPR. For both agonist and antagonist formats, activity was measure on a FLIPR Tetra (MDS). Calcium mobilization was monitored for 2 min with a 5 sec baseline read.
FLIPR read—Area under the curve, was calculated for the entire 2 min read.

T1 sequence (P31645 whole entry): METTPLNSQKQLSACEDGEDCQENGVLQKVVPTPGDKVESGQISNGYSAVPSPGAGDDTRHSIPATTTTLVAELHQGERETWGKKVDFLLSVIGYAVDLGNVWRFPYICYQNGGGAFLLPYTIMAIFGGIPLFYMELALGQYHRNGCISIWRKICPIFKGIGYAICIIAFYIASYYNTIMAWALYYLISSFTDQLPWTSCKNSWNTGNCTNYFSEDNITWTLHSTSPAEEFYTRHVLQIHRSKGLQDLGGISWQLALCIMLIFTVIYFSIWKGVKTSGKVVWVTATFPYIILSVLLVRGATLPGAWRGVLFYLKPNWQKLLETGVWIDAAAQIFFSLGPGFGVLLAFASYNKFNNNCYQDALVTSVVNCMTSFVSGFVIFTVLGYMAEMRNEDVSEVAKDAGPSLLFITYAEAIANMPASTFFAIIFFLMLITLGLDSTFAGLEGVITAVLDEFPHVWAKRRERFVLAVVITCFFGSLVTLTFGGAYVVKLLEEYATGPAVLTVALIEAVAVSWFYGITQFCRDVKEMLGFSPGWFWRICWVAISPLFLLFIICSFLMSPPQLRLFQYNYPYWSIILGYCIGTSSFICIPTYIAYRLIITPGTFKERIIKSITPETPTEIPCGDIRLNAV
Chain of DRD1 (P21728 whole entry): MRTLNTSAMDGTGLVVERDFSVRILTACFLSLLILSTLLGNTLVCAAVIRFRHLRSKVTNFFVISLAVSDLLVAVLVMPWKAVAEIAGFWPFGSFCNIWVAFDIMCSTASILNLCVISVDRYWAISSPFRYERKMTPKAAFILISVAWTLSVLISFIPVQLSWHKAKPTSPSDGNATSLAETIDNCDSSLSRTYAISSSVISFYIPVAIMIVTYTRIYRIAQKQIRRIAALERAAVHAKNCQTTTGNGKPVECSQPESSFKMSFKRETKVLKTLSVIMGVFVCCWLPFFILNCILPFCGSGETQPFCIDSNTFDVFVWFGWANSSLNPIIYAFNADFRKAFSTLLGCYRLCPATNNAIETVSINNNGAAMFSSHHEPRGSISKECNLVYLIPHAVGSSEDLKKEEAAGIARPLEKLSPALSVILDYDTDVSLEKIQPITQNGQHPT
Chain of NMDAR (1A/2B) (Q13224 27-1484, other chains not shown): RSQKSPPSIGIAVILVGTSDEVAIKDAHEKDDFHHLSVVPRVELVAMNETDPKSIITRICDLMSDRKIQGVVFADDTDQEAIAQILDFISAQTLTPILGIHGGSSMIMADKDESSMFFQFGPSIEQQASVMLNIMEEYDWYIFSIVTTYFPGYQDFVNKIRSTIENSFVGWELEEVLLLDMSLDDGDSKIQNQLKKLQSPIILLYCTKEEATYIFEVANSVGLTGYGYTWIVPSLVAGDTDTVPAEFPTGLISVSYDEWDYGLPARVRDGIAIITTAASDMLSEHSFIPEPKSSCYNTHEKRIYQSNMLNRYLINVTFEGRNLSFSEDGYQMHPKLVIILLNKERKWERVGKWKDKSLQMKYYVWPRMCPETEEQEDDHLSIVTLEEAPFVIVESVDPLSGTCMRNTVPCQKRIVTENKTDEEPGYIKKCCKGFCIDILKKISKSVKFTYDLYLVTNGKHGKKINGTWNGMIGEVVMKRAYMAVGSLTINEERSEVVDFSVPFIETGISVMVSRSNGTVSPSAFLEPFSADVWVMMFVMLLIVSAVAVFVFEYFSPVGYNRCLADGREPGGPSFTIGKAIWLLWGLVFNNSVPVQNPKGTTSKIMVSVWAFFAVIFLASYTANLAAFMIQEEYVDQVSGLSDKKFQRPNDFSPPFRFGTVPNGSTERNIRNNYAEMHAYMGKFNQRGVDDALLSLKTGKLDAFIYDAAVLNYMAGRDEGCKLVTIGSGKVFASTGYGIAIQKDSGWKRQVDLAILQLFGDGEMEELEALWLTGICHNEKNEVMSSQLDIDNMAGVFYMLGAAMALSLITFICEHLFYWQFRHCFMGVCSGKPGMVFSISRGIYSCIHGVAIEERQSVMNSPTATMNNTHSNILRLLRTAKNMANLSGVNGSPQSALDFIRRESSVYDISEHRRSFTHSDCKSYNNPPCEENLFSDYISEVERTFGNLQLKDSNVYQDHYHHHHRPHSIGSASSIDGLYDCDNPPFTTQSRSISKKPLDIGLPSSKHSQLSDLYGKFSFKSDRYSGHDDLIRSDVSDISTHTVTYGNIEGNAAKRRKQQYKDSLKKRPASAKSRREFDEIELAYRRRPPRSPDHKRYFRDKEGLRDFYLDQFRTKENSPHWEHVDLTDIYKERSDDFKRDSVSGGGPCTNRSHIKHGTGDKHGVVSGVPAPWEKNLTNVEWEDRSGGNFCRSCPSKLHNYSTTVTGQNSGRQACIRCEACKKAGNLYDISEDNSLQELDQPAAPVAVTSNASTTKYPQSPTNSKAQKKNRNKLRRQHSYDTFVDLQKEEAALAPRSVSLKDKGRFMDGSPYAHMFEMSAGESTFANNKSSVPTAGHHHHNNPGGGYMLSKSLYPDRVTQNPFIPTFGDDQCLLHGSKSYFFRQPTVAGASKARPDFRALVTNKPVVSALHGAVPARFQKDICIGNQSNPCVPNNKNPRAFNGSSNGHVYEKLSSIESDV
Chain of OPRM1 (P35372 whole entry): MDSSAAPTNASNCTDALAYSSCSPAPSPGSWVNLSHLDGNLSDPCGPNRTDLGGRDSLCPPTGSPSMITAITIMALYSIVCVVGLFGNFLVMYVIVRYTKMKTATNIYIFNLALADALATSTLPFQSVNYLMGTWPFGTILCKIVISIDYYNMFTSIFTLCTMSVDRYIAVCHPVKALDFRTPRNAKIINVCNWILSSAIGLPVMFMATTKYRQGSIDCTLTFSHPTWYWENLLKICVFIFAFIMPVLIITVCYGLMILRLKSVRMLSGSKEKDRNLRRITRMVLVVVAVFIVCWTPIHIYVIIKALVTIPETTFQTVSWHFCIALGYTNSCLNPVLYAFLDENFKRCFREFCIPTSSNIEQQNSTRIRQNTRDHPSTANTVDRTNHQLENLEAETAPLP
Chain of HRH2 (P25021 whole entry): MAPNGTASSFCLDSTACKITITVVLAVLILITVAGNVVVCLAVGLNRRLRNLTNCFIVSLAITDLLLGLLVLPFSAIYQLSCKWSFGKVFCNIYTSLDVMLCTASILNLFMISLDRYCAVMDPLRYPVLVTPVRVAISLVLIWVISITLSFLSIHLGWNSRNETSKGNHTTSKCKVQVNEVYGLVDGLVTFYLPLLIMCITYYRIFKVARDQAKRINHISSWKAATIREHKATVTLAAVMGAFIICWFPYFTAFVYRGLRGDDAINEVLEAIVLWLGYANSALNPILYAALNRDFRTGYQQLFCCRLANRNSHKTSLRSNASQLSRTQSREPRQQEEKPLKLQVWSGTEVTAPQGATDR
Chain of AVPR1A (P37288 whole entry): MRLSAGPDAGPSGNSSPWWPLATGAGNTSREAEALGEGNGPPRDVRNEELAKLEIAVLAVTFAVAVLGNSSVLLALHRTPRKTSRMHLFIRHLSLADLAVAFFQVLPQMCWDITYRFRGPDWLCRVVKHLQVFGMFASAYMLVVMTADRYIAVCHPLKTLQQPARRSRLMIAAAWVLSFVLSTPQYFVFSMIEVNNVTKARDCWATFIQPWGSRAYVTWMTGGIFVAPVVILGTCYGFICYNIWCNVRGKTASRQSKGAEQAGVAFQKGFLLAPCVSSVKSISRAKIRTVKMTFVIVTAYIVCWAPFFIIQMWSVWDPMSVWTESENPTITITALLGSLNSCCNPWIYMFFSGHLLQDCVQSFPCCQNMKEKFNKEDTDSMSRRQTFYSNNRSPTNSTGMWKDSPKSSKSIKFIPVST
Chain of CNR2 (P34972 whole entry): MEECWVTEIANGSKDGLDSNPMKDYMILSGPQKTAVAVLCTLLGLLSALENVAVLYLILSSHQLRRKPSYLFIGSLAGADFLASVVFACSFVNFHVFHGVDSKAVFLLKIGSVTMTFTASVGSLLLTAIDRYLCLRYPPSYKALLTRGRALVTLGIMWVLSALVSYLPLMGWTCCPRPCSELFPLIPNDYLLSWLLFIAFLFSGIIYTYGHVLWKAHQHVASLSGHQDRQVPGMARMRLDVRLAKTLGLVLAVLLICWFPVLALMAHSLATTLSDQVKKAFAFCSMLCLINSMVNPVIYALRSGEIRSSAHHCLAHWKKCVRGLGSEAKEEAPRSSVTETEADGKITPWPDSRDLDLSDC

In the case of `CC(C)(C)c1ccc(C#CC(O)c2ccccc2)cc1` (racemic) [Compound 3.3, rac-3-(4-(tert-butyl)phenyl)-1-phenylprop-2-yn-1-ol], the pEC50 [1] was under 5.00, the Emax [1] was 1.2% and the pIC50 [2] was under 5.00. For the same compound, the Emax [2] was 0%, the pIC50 [3] was under 5.00 and the Emax [3] was 0.8%. The pEC50 [4] was under 5.00, the Emax [4] was 38.1% and the pIC50 [5] was under 5.00. For the same compound, the Emax [5] was 0%, the pIC50 [6] was under 5.00 and the Emax [6] was 47.5%. The pIC50 [7] was under 5.00, the Emax [7] was 0% and the pIC50 [8] was under 5.00. It also gave an Emax [8] of 2.7%, a pIC50 ([9]; Calcium Flux AVPR1A Antagonist) of under 5.00 and an Emax [9] of 0%.

For `Clc1cccc(C#Cc2n[nH]c3ncccc23)c1` [Compound 10.1, 3-((3-chlorophenyl)ethynyl)-1H-pyrazolo[3,4-b]pyridine], the pEC50 [1] was under 5.00, the Emax [1] was 1.3% and the pIC50 [2] was under 5.00. The Emax [2] was 0%, the pIC50 [3] was under 5.00 and the Emax [3] was 0%. The pEC50 [4] was under 5.00, the Emax [4] was 49.3% and the pIC50 [5] was under 5.00. It also gave an Emax [5] of 5.5%, an Emax ([6]; Ion Channel KvLQT1/minK Blocker) of 0% and a pIC50 ([6]; Ion Channel KvLQT1/minK Blocker, read-out: RC50, result type IC50) of under 5.00. The pIC50 [7] was under 5.00, the Emax [7] was 0% and the Emax ([8]; cAMP HRH2 Antagonist) was 13.9%. It also gave a pIC50 ([8]; cAMP HRH2 Antagonist, read-out: RC50, result type IC50) of under 5.00, an Emax ([9]; Calcium Flux AVPR1A Antagonist) of 0% and a pIC50 ([9]; Calcium Flux AVPR1A Antagonist) of under 5.00.
